Measured values from publication PMC12951568, “Identifying Structural Factors Governing the Photodynamic Activity of Phthalocyanines” (Journal of Medicinal Chemistry, 2026).
Like-named read-outs stand apart in the source and are kept apart here.

Legend:
[1] = target: bovine serum albumin (BSA) (Bos taurus, UniProt P02769); test: Interaction with bovine serum albumin (absorption and emission spectra in PBS); type: binding; conditions: 1 μM Pc in PBS, BSA 17.5, 35 and 100 μM
[2] = Absorption and fluorescence emission spectra in DMF; type: physicochemical; conditions: for ε, extinction coefficient / λA, absorption maximum in the Q-band / λF, fluorescence emission maximum: in DMF
Protocol: An absorption spectrum of 2.475 mL of solvent (water, DMF, or PBS) was taken (i.e., absorption spectrum of baseline); then, 25 μL of stock solution was added to reach the final concentration of 1 μM in the cuvette, and the absorption and emission spectra were taken. Baseline of the solvent was subtracted from the obtained absorption spectrum to get the final absorption spectrum of the sample.

[3] = Quantum yield of singlet oxygen production, comparative method with DPBF scavenger; type: physicochemical; conditions: in DMF, ZnPc as reference
Protocol: Eight μL of the 100 μM stock solution of the dye in DMF (or DMF + water or water; see above) was added. A xenon lamp (100 W, ozone free XE DC short arc lamp, New port) was used to irradiate the sample while stirring. The incident light was filtered through a water filter (6 cm) and cut off filter OG530 eliminating heat and light under 523 nm, respectively. […] The decrease of DPBF in solution with irradiation time was monitored at 415 nm. The values of ΦΔ of the dyes were calculated by the following equation: φΔS=φΔ[…] is the slope of the plot of the dependence of ln([…] 0 and A t being the absorbances of the DPBF at 415 nm before irradiation and after irradiation time t, respectively. I aT is the total amount of light absorbed by the dye sample. Superscripts R and S indicate the reference and sample, respectively. I aT is calculated as a sum of intensities of the absorbed light I a at wavelengths from 523 to 850 nm (step 0.5 nm). Light under 523 nm is completely filtered by an OG530 filter, and light above 850 nm is not absorbed by the studied dye sample. I a at a given wavelength is calculated using Beer-Lambert'[…]) where I 0 is transmittance of the filter at the given wavelength and A is the absorbance of the dye at this wavelength. All experiments were performed three times, and the data presented is the mean value of the three obtained results with estimated error ± 10%.

[4] = Log P, partition between n-octanol and PBS; type: physicochemical
Protocol: 400 μL portion of n-octanol and 400 μL of PBS buffer were mixed in a plastic Eppendorf vial. Then, 20 μL of the 100 μM stock solution of the sample (see above) was added to this mixture, vortexed for 5 min at rt, and then centrifuged for 10 min (10 000 rpm, rt). 50 μL of each of these layers was taken into 2.5 mL of DMF in a quartz cuvette, and their emission spectra (excitation wavelengths in Table ) were recorded. The log P value was then computed using the area under the curve of the emission spectra of n-octanol (F oct) and PBS buffer (F PBS) layers as follows: logP=log(Foct/FPBS) Triplicate measurements were performed, and the data reported are the mean of the obtained results.

[5] = tested on: HeLa (human cervical carcinoma); conditions: ref number not given, cited from earlier work
[6] = Fluorescence quantum yield, comparative method; type: physicochemical; conditions: in DMF; ZnPc as reference
Protocol: The fluorescence quantum yields (ΦF) were determined by a comparative method with ZnPc as the reference (ΦF = 0.32 in THF). The ΦF values were calculated using the following formula: ϕFS=ϕFR(F^S/F^R)(1−10^−A^R/1−10^−A^S)(η^S/η^R)^2 where F is the integrated area under the emission spectrum and A is the absorbance at the excitation wavelength. Superscripts R and S indicate the reference and sample, respectively. η stands for the refractive index of the solvent. Absorption in the Q-band was kept below 0.05 to eliminate the inner filter effect. Excitation wavelengths were the same as those used for emission spectra (see above). The emission wavelengths were set to their emission maxima to avoid exceeding the detector limit with stimated error ± 15%.

[7] = Fluorescence lifetime in DMF; type: physicochemical
Text: 1 Photophysical Data of Investigated Derivatives in DMF ^a | column: τF1/ns; τF2/ns

[8] = tested on: SK-MEL-28 (human skin melanoma); test: Photodynamic activity (phototoxicity, neutral red uptake) on SK-MEL-28; type: cell-based; conditions: 12 h incubation, Xe-lamp 15 min, λ > 570 nm, 11.2 J/cm^2; mean ± SD; t.w. = this work
Protocol: (§1) Detailed in vitro studies involving subcellular localization and determination of the EC50 in three different cell lines (human cervical carcinoma–HeLa, human breast adenocarcinoma–MCF-7, and human skin melanoma–SK-MEL-28) were performed. A broadband light source (ozone-free 450 W Xe-lamp, Newport) equipped with the long-pass filter Schott OG570 was used (12.4 mW/cm^2, 15 min, 11.2 J/cm^2).
(§2) For the cytotoxicity experiments (phototoxicity), cells were seeded at 100 μL per well into 96-well plates (TPP, Switzerland) at a density of 7.5 × 10^3 (HeLa) or 1.0 × 10^4 (MCF-7 and SK-MEL-28) cells per well. Cells were left to grow for 24 h (until they reached confluency) in a controlled environment of a CO2 incubator (37 °C, 5% CO2 atmosphere, constant high humidity). Subsequently, studied compounds were added in a wide concentration range and incubated with the cells for 12 h. Cells were washed; fresh cell culture medium was added, and the cells were irradiated using a 450 W Xe lamp (Newport, USA). The lamp was equipped with a long pass filter (Newport OG570) and an 8 cm water filter (λ > 570 nm, 12.4 mW/cm^2, 15 min, 11.2 J/cm^2). Cellular viability was assessed after an additional 24 h by the neutral red (NR; Sigma, Merck, USA) uptake assay. At least three independent experiments, each in triplicate, were performed. The soluble NR was measured at λ = 540 nm using a Tecan Infinite 200 M plate reader (Tecan, Austria). The viability of each experimental group was expressed as the percentage of the untreated cells (100% viability) after subtraction of the signal from cells treated with a lethal dose of hydrogen peroxide (0% viability). […] EC50 values were calculated, and graphs were created by using GraphPad Prism 10.3.1 (Graph Pad software, USA).

[9] = tested on: MCF-7 (human breast adenocarcinoma); test: Photodynamic activity (phototoxicity, neutral red uptake) on MCF-7; type: cell-based; conditions: 12 h incubation, Xe-lamp 15 min, λ > 570 nm, 11.2 J/cm^2; mean ± SD; t.w. = this work
Protocol: as §1, §2

[10] = partition coefficient between 1-octanol and PBS

bovine serum albumin (BSA), sequence (P02769 25-607): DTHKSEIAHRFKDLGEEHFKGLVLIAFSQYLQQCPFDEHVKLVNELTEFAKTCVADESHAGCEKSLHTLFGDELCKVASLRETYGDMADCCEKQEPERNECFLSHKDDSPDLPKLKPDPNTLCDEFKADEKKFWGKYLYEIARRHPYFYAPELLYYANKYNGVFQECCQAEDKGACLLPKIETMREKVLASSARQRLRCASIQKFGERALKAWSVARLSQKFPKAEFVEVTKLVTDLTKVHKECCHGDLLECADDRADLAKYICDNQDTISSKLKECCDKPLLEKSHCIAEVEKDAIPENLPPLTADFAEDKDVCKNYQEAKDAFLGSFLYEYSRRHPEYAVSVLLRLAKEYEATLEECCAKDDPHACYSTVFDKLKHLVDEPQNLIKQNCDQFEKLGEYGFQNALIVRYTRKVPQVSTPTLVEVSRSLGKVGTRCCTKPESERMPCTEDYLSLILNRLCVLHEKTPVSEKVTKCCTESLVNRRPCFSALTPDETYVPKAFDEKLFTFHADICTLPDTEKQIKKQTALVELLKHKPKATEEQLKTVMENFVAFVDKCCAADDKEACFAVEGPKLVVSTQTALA

τF1, fluorescence lifetime (relative amplitude in brackets) [7]	τF2, fluorescence lifetime (relative amplitude in brackets) [7]	blueshift of the Q-band vs corresponding Pc analogue ([2]; pyrazine analogs vs A4Zn and N6Zn, DMF) [nm]	Log P [4]	SMILES	Interaction with BSA: disaggregation/monomerization and changes in absorption and fluorescence emission spectra [1]	quenching of excited states upon BSA addition (decrease in Q-band maximum and fluorescence intensity) [1]	ε, extinction coefficient [2]	λA, absorption maximum in the Q-band [2] [nm]	λF, fluorescence emission maximum [2] [nm]	ΦΔ, quantum yield of singlet oxygen production [3]	Log P [4, 10]	EC50 ([5]; 12 h incubation, Xe-lamp 15 min, λ > 570 nm, 11.2 J/cm^2, mean ± SD, determined previously under the same conditions at the same workplace and published, read-out: EC50 (nM) HeLa) [nM]	ΦF, fluorescence quantum yield [6]	EC50 [8] [nM]	EC50 [9] [nM]	EC50 ([5]; same irradiation conditions, previously published per Table 2, read-out: EC50 (HeLa)) [nM]
				O=C([O-])c1cc(C(=O)[O-])cc(-c2nc3c(nc2-c2cc(C(=O)[O-])cc(C(=O)[O-])c2)C2=Nc4c5nc(-c6cc(C(=O)[O-])cc(C(=O)[O-])c6)c(-c6cc(C(=O)[O-])cc(C(=O)[O-])c6)nc5c5[n]4[Zn][n]4c(c6nc(-c7cc(C(=O)[O-])cc(C(=O)[O-])c7)c(-c7cc(C(=O)[O-])cc(C(=O)[O-])c7)nc6c4=NC4=NC(=N5)c5nc(-c6cc(C(=O)[O-])cc(C(=O)[O-])c6)c(-c6cc(C(=O)[O-])cc(C(=O)[O-])c6)nc54)=NC3=N2)c1.[Na+].[Na+].[Na+].[Na+].[Na+].[Na+].[Na+].[Na+].[Na+].[Na+].[Na+].[Na+].[Na+].[Na+].[Na+].[Na+] [A5Zn]	slight bathochromic shift in the Q-band accompanied by partial quenching of the excited states	significant	138 740 M^–1cm^–1	659	675	0.21	–3.27	5700 ± 1100	0.03			
				O=S(=O)([O-])c1ccc(Oc2cccc3c2C2=Cc4c5cccc(Oc6ccc(S(=O)(=O)[O-])c7cccnc67)c5c5[n]4[Zn][n]4c(c6cccc(Oc7ccc(S(=O)(=O)[O-])c8cccnc78)c6c4=CC3=N2)=CC2=NC(=C5)c3cccc(Oc4ccc(S(=O)(=O)[O-])c5cccnc45)c32)c2ncccc12.[Na+].[Na+].[Na+].[Na+] [A8Zn]	complete		197 610 M^–1cm^–1	696	708	0.69	–3.64		0.26	1200 ± 280	2470 ± 810	
				C[n+]1cccc(Oc2ccc3c(c2)C2=NC3=Nc3c4cc(Oc5ccc[n+](C)c5)ccc4c4[n]3[Zn][n]3c(c5ccc(Oc6ccc[n+](C)c6)cc5c3=NC3=NC(=N4)c4cc(Oc5ccc[n+](C)c5)ccc43)=N2)c1 [C5Zn]	slight decrease in the absorption band (without a shift in the spectrum) but was accompanied by a slight increase in the fluorescence intensity											
1.04 (3%) ns	3.17 (97%) ns			Cc1cc(OCc2cn(CCOCCOCCO)nn2)c(Oc2cc3c(cc2Oc2c(OCc4cn(CCOCCOCCO)nn4)cc(C)cc2OCc2cn(CCOCCOCCO)nn2)C2=Nc4c5cc(Oc6c(OCc7cn(CCOCCOCCO)nn7)cc(C)cc6OCc6cn(CCOCCOCCO)nn6)c(Oc6c(OCc7cn(CCOCCOCCO)nn7)cc(C)cc6OCc6cn(CCOCCOCCO)nn6)cc5c5[n]4[Zn][n]4c(c6cc(Oc7c(OCc8cn(CCOCCOCCO)nn8)cc(C)cc7OCc7cn(CCOCCOCCO)nn7)c(Oc7c(OCc8cn(CCOCCOCCO)nn8)cc(C)cc7OCc7cn(CCOCCOCCO)nn7)cc6c4=NC4=NC(=N5)c5cc(Oc6c(OCc7cn(CCOCCOCCO)nn7)cc(C)cc6OCc6cn(CCOCCOCCO)nn6)c(Oc6c(OCc7cn(CCOCCOCCO)nn7)cc(C)cc6OCc6cn(CCOCCOCCO)nn6)cc54)=NC3=N2)c(OCc2cn(CCOCCOCCO)nn2)c1 [N6Zn]			237 520 M^–1cm^–1	681	690	0.46			0.26			69700
0.74 (5%) ns	2.45 (95%) ns	35	–1.60	Cc1cc(OCc2cn(CCOCCOCCO)nn2)c(Oc2nc3c(nc2Oc2c(OCc4cn(CCOCCOCCO)nn4)cc(C)cc2OCc2cn(CCOCCOCCO)nn2)C2=Nc4c5nc(Oc6c(OCc7cn(CCOCCOCCO)nn7)cc(C)cc6OCc6cn(CCOCCOCCO)nn6)c(Oc6c(OCc7cn(CCOCCOCCO)nn7)cc(C)cc6OCc6cn(CCOCCOCCO)nn6)nc5c5[n]4[Zn][n]4c(c6nc(Oc7c(OCc8cn(CCOCCOCCO)nn8)cc(C)cc7OCc7cn(CCOCCOCCO)nn7)c(Oc7c(OCc8cn(CCOCCOCCO)nn8)cc(C)cc7OCc7cn(CCOCCOCCO)nn7)nc6c4=NC4=NC(=N5)c5nc(Oc6c(OCc7cn(CCOCCOCCO)nn7)cc(C)cc6OCc6cn(CCOCCOCCO)nn6)c(Oc6c(OCc7cn(CCOCCOCCO)nn7)cc(C)cc6OCc6cn(CCOCCOCCO)nn6)nc54)=NC3=N2)c(OCc2cn(CCOCCOCCO)nn2)c1 [N7Zn]			195 490 M^–1cm^–1	629	641	0.58			0.18			

SMILES	τF1, fluorescence lifetime (relative amplitude in brackets) [7]	τF2, fluorescence lifetime (relative amplitude in brackets) [7]	blueshift of the Q-band vs corresponding Pc analogue ([2]; pyrazine analogs vs A4Zn and N6Zn, DMF) [nm]	Log P [4]	Interaction with BSA: disaggregation/monomerization and changes in absorption and fluorescence emission spectra [1]	quenching of excited states upon BSA addition (decrease in Q-band maximum and fluorescence intensity) [1]	ε, extinction coefficient [2]	λA, absorption maximum in the Q-band [2] [nm]	λF, fluorescence emission maximum [2] [nm]	ΦΔ, quantum yield of singlet oxygen production [3]	Log P [4, 10]	EC50 ([5]; 12 h incubation, Xe-lamp 15 min, λ > 570 nm, 11.2 J/cm^2, mean ± SD, determined previously under the same conditions at the same workplace and published, read-out: EC50 (nM) HeLa) [nM]	ΦF, fluorescence quantum yield [6]	EC50 [8] [nM]	EC50 [9] [nM]	EC50 ([5]; same irradiation conditions, previously published per Table 2, read-out: EC50 (HeLa)) [nM]
O=S(=O)([O-])c1ccc(Oc2ccc3c(c2)C2=Cc4c5ccc(Oc6ccc(S(=O)(=O)[O-])c7cccnc67)cc5c5[n]4[Zn][n]4c(c6ccc(Oc7ccc(S(=O)(=O)[O-])c8cccnc78)cc6c4=CC3=N2)=CC2=NC(=C5)c3ccc(Oc4ccc(S(=O)(=O)[O-])c5cccnc45)cc32)c2ncccc12.[Na+].[Na+].[Na+].[Na+] [A6Zn]	3.14 ns				partial		122 420 M^–1cm^–1	681	692	0.58	–2.89		0.28			
